# Results published in the supplement of paper PMC10307832.
# Assays:
# Assay in all cases: relative viability (nuclei count vs DMSO), 5 days (fraction); higher = more cells survive
# NCI-H650 = test system: NCI-H650
# Procedure, shortened: (§1)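 Dosing by pin tool came one day after lung cancer cell lines were seeded in 1536-well plates, using either one drug or a fixed anchor-drug dose plus five library-drug doses (not always all listed) in √10 steps. After 5 days, nuclei were counted on 4× images. Relative viability is treated-well nuclei count divided by vehicle-well nuclei count, and values are medians of duplicate plates.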
# LOU-NH91 = test system: LOU-NH91
# Procedure, shortened: as §1
# NCI-H3122 = test system: NCI-H3122
# Procedure, shortened: as §1
# NCI-H596 = test system: NCI-H596
# Procedure, shortened: as §1
# NCI-H1993 = test system: NCI-H1993
# Procedure, shortened: as §1
# NCI-H441 = test system: NCI-H441
# Procedure, shortened: as §1
# HARA = test system: HARA
# Procedure, shortened: as §1
# EMC-BAC-2 = test system: EMC-BAC-2
# Procedure, shortened: as §1
# NCI-H2009 = test system: NCI-H2009
# Procedure, shortened: as §1
# 201T = test system: 201T
# Procedure, shortened: as §1
# NCI-H1666 = test system: NCI-H1666
# Procedure, shortened: as §1
# NCI-H2347 = test system: NCI-H2347
# Procedure, shortened: as §1
# LCLC-103H = test system: LCLC-103H
# Procedure, shortened: as §1
# NCI-H23 = test system: NCI-H23
# Procedure, shortened: as §1
# NCI-H2087 = test system: NCI-H2087
# Procedure, shortened: as §1
# NCI-H2126 = test system: NCI-H2126
# Procedure, shortened: as §1
# NCI-H727 = test system: NCI-H727
# Procedure, shortened: as §1
# NCI-H2023 = test system: NCI-H2023
# Procedure, shortened: as §1
# HCC-44 = test system: HCC-44
# Procedure, shortened: as §1
# NCI-H647 = test system: NCI-H647
# Procedure, shortened: as §1
# NCI-H838 = test system: NCI-H838
# Procedure, shortened: as §1
# NCI-H1395 = test system: NCI-H1395
# Procedure, shortened: as §1
# BEN = test system: BEN
# Procedure, shortened: as §1
smiles,measurement,setting,value
O=C(O)c1ccc(-c2c[nH]c3ncc(-c4ccccc4)cc23)cc1C1CCCC1 + CC(=O)Nc1cccc(-n2c(=O)n(C3CC3)c(=O)c3c(Nc4ccc(I)cc4F)n(C)c(=O)c(C)c32)c1 [Trametinib] (partner 0.02 µM),relative viability,NCI-H650; first compound 0.04 µM,0.935
same,relative viability,NCI-H650; first compound 0.1265 µM,0.943
same,relative viability,NCI-H650; first compound 0.4 µM,0.879
same,relative viability,NCI-H650; first compound 1.265 µM,0.579
same,relative viability,LOU-NH91; first compound 0.04 µM,0.774
same,relative viability,LOU-NH91; first compound 0.1265 µM,0.848
same,relative viability,LOU-NH91; first compound 0.4 µM,0.773
same,relative viability,LOU-NH91; first compound 1.265 µM,0.681
same,relative viability,NCI-H3122; first compound 0.04 µM,0.196
same,relative viability,NCI-H3122; first compound 0.1265 µM,0.24
same,relative viability,NCI-H3122; first compound 0.4 µM,0.253
same,relative viability,NCI-H3122; first compound 1.265 µM,0.277
same,relative viability,NCI-H596; first compound 0.04 µM,0.726
same,relative viability,NCI-H596; first compound 0.1265 µM,0.815
same,relative viability,NCI-H596; first compound 0.4 µM,0.777
same,relative viability,NCI-H596; first compound 1.265 µM,0.802
same,relative viability,NCI-H1993; first compound 0.04 µM,0.473
same,relative viability,NCI-H1993; first compound 0.1265 µM,0.484
same,relative viability,NCI-H1993; first compound 0.4 µM,0.42
same,relative viability,NCI-H1993; first compound 1.265 µM,0.575
same,relative viability,NCI-H441; first compound 0.04 µM,0.48
same,relative viability,NCI-H441; first compound 0.1265 µM,0.494
same,relative viability,NCI-H441; first compound 0.4 µM,0.393
same,relative viability,NCI-H441; first compound 1.265 µM,0.464
same,relative viability,HARA; first compound 0.04 µM,0.692
same,relative viability,HARA; first compound 0.1265 µM,0.72
same,relative viability,HARA; first compound 0.4 µM,0.74
same,relative viability,HARA; first compound 1.265 µM,0.545
same,relative viability,EMC-BAC-2; first compound 0.04 µM,0.903
same,relative viability,EMC-BAC-2; first compound 0.1265 µM,0.976
same,relative viability,EMC-BAC-2; first compound 0.4 µM,1.05
same,relative viability,EMC-BAC-2; first compound 1.265 µM,0.973
same,relative viability,NCI-H2009; first compound 0.04 µM,0.261
same,relative viability,NCI-H2009; first compound 0.1265 µM,0.311
same,relative viability,NCI-H2009; first compound 0.4 µM,0.274
same,relative viability,NCI-H2009; first compound 1.265 µM,0.224
same,relative viability,201T; first compound 0.04 µM,0.703
same,relative viability,201T; first compound 0.1265 µM,0.673
same,relative viability,201T; first compound 0.4 µM,0.741
same,relative viability,201T; first compound 1.265 µM,0.738
same,relative viability,NCI-H1666; first compound 0.04 µM,0.916
same,relative viability,NCI-H1666; first compound 0.1265 µM,0.809
same,relative viability,NCI-H1666; first compound 0.4 µM,0.84
same,relative viability,NCI-H1666; first compound 1.265 µM,0.598
same,relative viability,NCI-H2347; first compound 0.04 µM,0.267
same,relative viability,NCI-H2347; first compound 0.1265 µM,0.286
same,relative viability,NCI-H2347; first compound 0.4 µM,0.311
same,relative viability,NCI-H2347; first compound 1.265 µM,0.26
same,relative viability,LCLC-103H; first compound 0.04 µM,0.65
same,relative viability,LCLC-103H; first compound 0.1265 µM,0.697
same,relative viability,LCLC-103H; first compound 0.4 µM,0.68
same,relative viability,LCLC-103H; first compound 1.265 µM,0.644
same,relative viability,NCI-H23; first compound 0.04 µM,0.375
same,relative viability,NCI-H23; first compound 0.1265 µM,0.397
same,relative viability,NCI-H23; first compound 0.4 µM,0.373
same,relative viability,NCI-H23; first compound 1.265 µM,0.258
same,relative viability,NCI-H2087; first compound 0.04 µM,0.204
same,relative viability,NCI-H2087; first compound 0.1265 µM,0.209
same,relative viability,NCI-H2087; first compound 0.4 µM,0.179
same,relative viability,NCI-H2087; first compound 1.265 µM,0.205
same,relative viability,NCI-H2126; first compound 0.04 µM,0.597
same,relative viability,NCI-H2126; first compound 0.1265 µM,0.585
same,relative viability,NCI-H2126; first compound 0.4 µM,0.562
same,relative viability,NCI-H2126; first compound 1.265 µM,0.55
same,relative viability,NCI-H727; first compound 0.04 µM,0.428
same,relative viability,NCI-H727; first compound 0.1265 µM,0.428
same,relative viability,NCI-H727; first compound 0.4 µM,0.379
same,relative viability,NCI-H727; first compound 1.265 µM,0.428
same,relative viability,NCI-H2023; first compound 0.04 µM,0.525
same,relative viability,NCI-H2023; first compound 0.1265 µM,0.55
same,relative viability,NCI-H2023; first compound 0.4 µM,0.618
same,relative viability,NCI-H2023; first compound 1.265 µM,0.413
same,relative viability,HCC-44; first compound 0.04 µM,1
same,relative viability,HCC-44; first compound 0.1265 µM,1.02
same,relative viability,HCC-44; first compound 0.4 µM,0.908
same,relative viability,HCC-44; first compound 1.265 µM,1.01
same,relative viability,NCI-H647; first compound 0.04 µM,0.432
same,relative viability,NCI-H647; first compound 0.1265 µM,0.477
same,relative viability,NCI-H647; first compound 0.4 µM,0.478
same,relative viability,NCI-H647; first compound 1.265 µM,0.389
same,relative viability,NCI-H838; first compound 0.04 µM,0.563
same,relative viability,NCI-H838; first compound 0.1265 µM,0.561
same,relative viability,NCI-H838; first compound 0.4 µM,0.569
same,relative viability,NCI-H838; first compound 1.265 µM,0.472
same,relative viability,NCI-H1395; first compound 0.04 µM,0.987
same,relative viability,NCI-H1395; first compound 0.1265 µM,1.09
same,relative viability,NCI-H1395; first compound 0.4 µM,1.02
same,relative viability,NCI-H1395; first compound 1.265 µM,0.957
same,relative viability,BEN; first compound 0.04 µM,1.19
same,relative viability,BEN; first compound 0.1265 µM,1.05
same,relative viability,BEN; first compound 0.4 µM,1.08
same,relative viability,BEN; first compound 1.265 µM,0.957
